Data from patent US10675286B2, “Heterocyclic compounds and uses thereof” (Infinity Pharmaceuticals, Inc., priority 2014, dated 2020).
“Also recorded” adds a separate entry of the source. Read-outs that look alike come from different tables or passages of the source.

Experiments:
Human hep = Human hep viability (ADME characteristics, Table 25); type: cell-based
Lewis Lung Carcinoma = Lewis Lung Carcinoma model; type: in vivo; conditions: single agent
[1] = tested on: IL-8 induced neutrophil migration; test: IL-8 driven murine air pouch model; type: in vivo; conditions: mouse; Compound BB 0.1, 0.3, 1, 3 mg/kg; Compound AA 10, 25, about 50 mg/kg; vs vehicle
Source text: IL-8 chemoattracts and activates neutrophils.

[2] = tested on: CXCL12-induced T cell migration; test: CXCL12-induced T-cell migration in CLL PBMCs (transwell); type: cell-based; conditions: Homo sapiens
Experimental: Specifically, the material used were media (RPMI+0.5% Fetal Bovine Serum+Pen/Strep), total CLL PBMCs (AllCells), CoStar 24-transwell plates ([…]) #3421, BD Cytofix Fixation Buffer (#554655), BD FBS Stain Buffer (BD Biosciences, 554656), Deep 96-well plate (Axygen, P-2ML-SQ-C), rhCXCL12 (R&D, 350-NS-050), CD-19 APC Cy7 (BD #348794 1:20), CD3-PerCPCy5.5 (BD #560835, 1:20), CD5-PE (Biolegend #300608, 1:5), CD4-FITC (BD #561842, 1:20), and CD8-APC (BD #561953, 1:20).
Total CLL human PBMCs were preincubated with Compound AA or BB in media for 45 minutes at 37° C. […] After the 45 minutes of compound preincubation, 500-750K CLL PBMCs were placed in the upper chamber of the transwell insert in a total volume of 100 uL. The cells were allowed to migrate for 2-4 hours at 37° C. The inserts were removed, and 550 uL media from lower chamber were transferred into a deep 96-well plate. The cells were spun at 1280 rpm for 5 minutes and flick media. The cells were resuspended in 400 uL BD Cytofixation buffer and incubated at RT for 10 minutes. 1 mL BD FBS stain buffer was added. The cells were spun at 1280 rpm and fixation buffer was disposed. The cells were resuspended in 100 uL of CD3,4,8,5,19 antibody cocktail made up in BD FBS stain buffer, which was then incubated at room temperature in the dark for 30-60 minutes. 1 mL BD FBS stain buffer was added to each well, which was then spun and flicked. The cells were resuspended in 150 uL FBS stain buffer and transferred to FACS tubes already containing 150 uL FBS stain buffer. Each sample was read on the FACS for 25 seconds. Gate on CD3, 4, 8 and CD19/5 subpopulations individually and calculate average migration index from triplicate samples. See e.g., Borge et al., haematologica 2010, 95(5): 768-775; de Rooij et al., Blood 2012, 119: 2590-2594.

[3] = In vitro toxicology studies
[4] = tested on: M1 macrophage differentiation; test: M1 macrophage differentiation; type: cell-based; conditions: data not shown
Experimental: A similar experiment was performed on M1 differentiation.

4T1 mammary carcinoma = test: 4T1 breast cancer model (orthotopic / subcutaneous), tumor growth and IHC; type: in vivo, mouse
Experimental: Plasma is collected for pharmokinetic (PK) analysis.
Luciferin measurements were taken twice a week.
Immunohistochemistry was performed to determine the distribution of immune cells within the tumor. In particular, CD11b myeloid cells were examined, as were regulatory vs. effector T cells (CD3, CD4, CD8, FoxP3).

[5] = tested on: differentiation of myeloid cells into M2 TAMs; test: Murine M2 TAM differentiation (ARG1 levels); type: cell-based, mouse
Source text: High ARG1 (Arginase-1) levels indicate that myeloid cells are differentiating into M2 macrophages, so lower ARG1 levels relative to a control indicate interference with differentiation into M2 macrophages. Expression of Arginase-1 depletes the tumor microenvironment of arginine, thereby promoting T cell death and NK cell inhibition. Schmid et. al., Proceedings: AACR 103rd Annual Meeting 2012, Cancer Research: Apr. 15, 2012; Volume 72, Issue 8, Supplement 1. […] M2 TAMs promote cancer cell survival (FIG. 23).

[6] = Dose-exposure proportionality (FIG. 44); conditions: in vivo
[7] = tested on: CXCL12 stimulated pAKT S473 in T cells and monocytes; test: Ex vivo whole blood CXCL12 stimulation of phospho-AKT, LLC-bearing mice; type: in vivo, mouse; conditions: LLC-bearing mice, 3, 7.5 or 15 mg/kg QD PO 12 days, 2 h post dose
Experimental: C57 BL/6 Albino mice were implanted with 1×10^6 cells in a SC injection in the hind flank. The cell implant material was generated from brei that was passaged from mouse to mouse. Treatment started when tumors were between 160-180 mm^3. Mice were dosed for 12 days, QD, PO with vehicle, 15, 7.5 or 3 mg/kg. On day 12 mice were dosed and terminal blood was collected 2 h post dose by cardiac stick collection. Blood was placed in EDTA K2 collection tube and stored at room temp for PD analysis.
Blood from each animal was aliquotted into 2 plates and warmed to 37° C. degrees. PBS was added to one plate as an unstimulated control. Murine CXCL12/SDF-1 was added to the second plate to a final concentration of 800 ng/mL and plate was returned to the 37° C. degree block. After 2 minutes of incubation, blood was lysed and fixed using paraformaldehyde. Samples were washed and frozen until flow cytometric analysis. T cells were gated using an antibody to CD3 and monocytes were gated as LY6G^− LY6C^high. Intracellular pAKT S473 was measured and percent positive was used for graphing.

GL-261 glioma = GL-261 glioma model, Compound BB with or without temozolomide; type: in vivo, mouse; conditions: Compound BB 15 mg/kg QD PO, from start or following temozolomide, vs vehicle
Experimental: TMZ was dosed IP 1×/day for 7 days.
Animals: C57 Albino mice (male) from Jackson Labs, n=80. Parameters Evaluated:
In life: Mice were dosed QD with Compound BB. Temozolomide was dosed QD IP, for 7 days. Tumor measurements and bodyweights were taken 2×/week, but caliper and xenogen measurements.
End point analysis: Tumors were cut in half. One half was cut in half again with ½ fixed in 10% NBF the other was frozen in OCT for frozen sections. The remaining half was processed to single cell suspention and evaluated by FACS.
PD satellite group—8 mice from the TMZ treated mice and 8 mice from the vehicle treated mice were sacrificed on day 7 post treatment. Tumors were processed to single cell suspention and evaluated by FACS.

P-GP (P-glycoprotein 1) = P-GP (P-glycoprotein 1) (Homo sapiens (Human), UniProt P08183); test: P-gp inhibition; type: in vitro ADME
[8] = orthotopic 4T1, 7.5 mg/kg PO once daily 3 weeks

Chain of P-GP (P-glycoprotein 1) (P08183 whole entry, species assumed): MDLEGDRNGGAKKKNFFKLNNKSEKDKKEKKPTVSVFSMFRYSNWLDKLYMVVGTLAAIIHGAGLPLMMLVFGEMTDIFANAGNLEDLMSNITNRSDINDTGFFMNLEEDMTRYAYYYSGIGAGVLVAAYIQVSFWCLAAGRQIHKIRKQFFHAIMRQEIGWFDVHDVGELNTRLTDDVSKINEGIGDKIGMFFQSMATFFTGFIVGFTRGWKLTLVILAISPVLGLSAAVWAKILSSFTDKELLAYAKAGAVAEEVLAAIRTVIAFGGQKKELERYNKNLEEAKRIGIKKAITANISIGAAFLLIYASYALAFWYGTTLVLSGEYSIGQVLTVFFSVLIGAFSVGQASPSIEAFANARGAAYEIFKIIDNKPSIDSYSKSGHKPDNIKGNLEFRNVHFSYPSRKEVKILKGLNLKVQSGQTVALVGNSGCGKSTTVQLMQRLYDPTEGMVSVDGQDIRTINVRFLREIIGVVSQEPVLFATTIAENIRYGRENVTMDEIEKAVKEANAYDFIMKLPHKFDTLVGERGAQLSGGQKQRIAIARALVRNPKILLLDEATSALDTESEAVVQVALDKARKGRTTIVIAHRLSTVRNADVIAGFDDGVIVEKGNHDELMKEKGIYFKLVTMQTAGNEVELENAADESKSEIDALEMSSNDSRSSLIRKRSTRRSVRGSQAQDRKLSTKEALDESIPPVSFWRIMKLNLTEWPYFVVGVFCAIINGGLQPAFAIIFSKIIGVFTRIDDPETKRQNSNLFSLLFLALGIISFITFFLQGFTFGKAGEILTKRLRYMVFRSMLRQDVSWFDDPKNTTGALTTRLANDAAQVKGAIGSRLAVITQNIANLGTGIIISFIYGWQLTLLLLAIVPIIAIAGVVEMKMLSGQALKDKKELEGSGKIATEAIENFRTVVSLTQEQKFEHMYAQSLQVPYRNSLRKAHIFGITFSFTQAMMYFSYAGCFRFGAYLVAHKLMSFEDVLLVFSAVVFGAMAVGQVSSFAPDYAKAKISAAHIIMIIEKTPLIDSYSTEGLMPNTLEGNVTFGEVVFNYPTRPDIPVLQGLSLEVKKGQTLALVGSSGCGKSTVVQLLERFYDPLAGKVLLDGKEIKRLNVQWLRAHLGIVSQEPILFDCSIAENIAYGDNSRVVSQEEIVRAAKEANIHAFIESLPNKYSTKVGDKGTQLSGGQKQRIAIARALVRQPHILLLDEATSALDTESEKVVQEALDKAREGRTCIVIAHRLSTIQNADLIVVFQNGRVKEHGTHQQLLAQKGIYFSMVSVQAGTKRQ

C[C@H](NC(=O)c1c(N)nn2cccnc12)c1cc2cccc(C#Cc3cnn(C)c3)c2c(=O)n1-c1ccccc1 [Compound BB]
IC50 (Human hep): 10000 to 25000 nM | activity in the Lewis Lung Carcinoma model (Lewis Lung Carcinoma): single agent activity | IL-8 induced neutrophil migration into air pouch [1]: blocks IL-8 induced neutrophil migration | EC50 ([2]; T-cell subset CD3+, read-out: EC50 (nM), CXCL12 induced T-cell migration): 17 ± 17 nM | EC50 ([2]; T-cell subset CD4+, read-out: EC50 (nM), CXCL12 induced T-cell migration): 20 ± 21 nM | EC50 ([2]; T-cell subset CD8+, read-out: EC50 (nM), CXCL12 induced T-cell migration): 13 ± 15 nM | EC50 ([2]; read-out: EC50, inhibition of CXCL12-induced CD3+ T cell migration (FIG. 8)): 10 nM | In vitro toxicology [3]: expected to have very low toxicity | M1 macrophage differentiation [4]: did not have an observable effect | Tumor growth (FIG. 35) (4T1 mammary carcinoma; 4T1, Compound BB alone 15 mg/kg once daily 2 weeks): achieved a reduction in tumor growth | CD11b+ myeloid cell staining in viable tumor regions (IHC, FIG. 37A) (4T1 mammary carcinoma; 4T1 tumors, day 13, vs vehicle): decrease in CD11b+ myeloid cell staining | Total luciferase flux (FIG. 33B) (4T1 mammary carcinoma; [8]): reduced total luciferase flux | Tumor growth (FIG. 33A) (4T1 mammary carcinoma; [8]): reduced tumor growth | Time the anti-tumor effect was maintained after discontinuation of treatment (4T1 mammary carcinoma; subcutaneous 4T1): at least 6 days | Tumor growth (FIG. 34, FIG. 36) (4T1 mammary carcinoma; subcutaneous 4T1, single agent): demonstrated single agent activity | Differentiation of myeloid cells into M2 TAMs (ARG1 levels, FIG. 22) [5]: inhibited M2 TAM differentiation much more effectively than PI3K-δ inhibitor | dose-exposure relationship [6]: dose-exposure proportionality | Ex vivo whole blood CXCL12 stimulation of phospho-AKT in T cells (FIG. 58) [7]: inhibits the ex vivo whole blood stimulation of phosphor-AKT in T cells | Ex vivo whole blood CXCL12 stimulation of phospho-AKT in monocytes (FIG. 59) [7]: inhibits the ex vivo whole blood stimulation of phosphor-AKT in monocytes | Tumor volume (FIGS. 53, 54) (GL-261 glioma): effective in reducing the tumor volume; also recorded: significant reduction in tumor volume | P-GP (P-glycoprotein 1) inhibition (P-GP (P-glycoprotein 1)): appears to be an inhibitor of P-GP
